Reference: patent publication US12642790B2, “Drug combination for treating obesity” (The Curators of the University of Missouri, priority 2022, dated 2026)

Columns and labels:
UCP1 [1] = assay: ucp1 mRNA induction in primary adipocytes by qRT-PCR; format: cell-based; settings: primary adipocytes from male C57BL6J mice; 1 uM CL with 1 uM PHTPP or 10 nM DPN; 24 hours; compared to CL alone; FIG. 4
Procedure: To test the hypothesis in vitro, that inhibition of genomic activity of ERβ would enhance the effectiveness of the […], CL316,243 (CL) to induce expression of the mitochondrial UCP1, primary adipocytes were treated with the following: (a) CL, (b) diarylpropionitrile (DPN) (i.e., ligand known to promote classical genomic functions of ERβ), (c) 4-(2-phenyl-5,7-bis(trifluoromethyl)pyrazolo[1,5-a]pyrimidin-3-yl)phenol (PHTPP) (i.e., ligand known to suppress classical genomic functions of ERβ), (d) CL+DPN, and (e) CL+PHTPP. Briefly, perigonadal and subcutaneous WAT was harvested from male C57BL6J mice, digested in collagenase to isolate stromal vascular cells then cultured in Dulbecco's modified eagle medium/nutrient mixture F12 media supplemented with 10% fetal bovine serum, 1% GlutaMax, 0.1% gentamicin and 0.05% insulin at 37° C. and 5% CO2. Adipocyte differentiation was induced by supplementing media with 0.5 mM 3-isobutyl-1-methylxanithin, 1 uM dexamethasone, and […] for 48 hours. 14 days post induction, primary adipocytes were treated with either 1 uM CL, 10 nM DPN, 1 uM PHTPP or a combination of ligands as outlined above. After 24 hours treatment, ucp1 mRNA induction was measured using qRT-PCR. […] Ucp1 mRNA expression is expressed as 2^ΔCT where ΔCT=housekeeping CT−Ucp1 CT and presented as fold difference relative to control (CTRL). […]

ERβ = assay: Western blot of ERβ protein in inguinal subcutaneous adipose tissue of diet-induced obese WT and ERβDBDKO mice; format: in vivo; settings: daily injections of CL for two weeks; ERβDBDKO vs WT diet-induced obese mice; GxT p<0.001; FIG. 1B
Text: (§1) Inguinal subcutaneous adipose tissue was harvested from diet-induced obese male and female wild-type (WT) and estrogen receptor beta (ERβ) DNA-binding domain (DBD) knock-out (ERβDBDKO) mice that were given daily injections of CL316,243 (CL), a beta3 adrenergic receptor (B3AR) ligand, for two weeks. ERβDBDKO mice express a mutated form of ERβ that lacks genomic activity by genetic ablation of the DBD, however still retain non-classical (i.e., non-genomic) signaling through ERβ. Protein was then isolated from the adipose tissue using Thermo Scientific™ RIPA lysis and extraction buffer, quantified using BCA method, then 10 ug was separated on a 4-20% SDS-PAGE gel followed by transfer to polyvinylidene difluoride membranes using BioRad Trans-Turbo Blot system. […] Images were captured on a ChemiDoc Imaging System (BioRad, Hercules, CA), band intensity was quantified using ImageLab software (BioRad), then ERβ and UCP1 protein expression was quantified relative to beta actin.
(§2) FIG. 1A is a Western blot showing the levels of ERβ and UPC1 in WT and ERβDBDKO (“KO”) mice, in the presence and absence of CL316243 (“CL”). The blot in FIG. 1A was scanned to quantify the band intensity, and the data used to graph the relative protein fold change for ERβ (FIG. 1B) and UCP-1 (FIG. 1C).

UCP1 [2] = assay: Western blot of UCP1 protein in inguinal subcutaneous adipose tissue of diet-induced obese WT and ERβDBDKO mice; format: in vivo; settings: daily injections of CL for two weeks; ERβDBDKO vs WT diet-induced obese mice; GxT p=0.017; FIG. 1C
Text: as §1, §2

[3] = administration of mirabegron; cited from earlier work
white adipose tissue = settings: obese human individuals; cited from earlier work

Oc1ccc(-c2c(-c3ccccc3)nn3c(C(F)(F)F)cc(C(F)(F)F)nc23)cc1 [PHTPP, 4-(2-phenyl-5,7-bis(trifluoromethyl)pyrazolo[1,5-a]pyrimidin-3-yl)phenol]
Ucp1 mRNA expression, fold difference relative to control (UCP1 [1]): increases the CL-mediated induction of UCP1

C[C@H](Cc1ccc2c(c1)OC(C(=O)[O-])(C(=O)[O-])O2)NC[C@H](O)c1cccc(Cl)c1.[Na+].[Na+] [CL]
ERβ protein content in WAT (relative to beta actin) (ERβ): increases ERβ protein content in WAT to a greater level in ERβDBDKO mice compared to WT
UCP1 protein content (relative to beta actin) (UCP1 [2]): increases UCP1 protein content in ERβDBDKO mice more so than in WT mice

Nc1nc(CC(=O)Nc2ccc(CCNC[C@H](O)c3ccccc3)cc2)cs1 [mirabegron]
side effects [3]: may result in hypertension, nasopharyngitis, tachycardia, headaches, urinary tract infections, upper respiratory tract infections, constipation, abdominal pain, and fatigue
white adipose tissue dysfunction (white adipose tissue): reduced white adipose tissue dysfunction
